Structures are written as SMILES. Where two headings read alike, the source gives them in different places.

As a reminder, the IC50 is the concentration that gives 50% inhibition.

The test system of one experiment is male mice of ddy strain. The experiment in a line: Anticonvulsant action induced by AMPA (Test Example 2). Type of experiment: in vivo. Particulars: 25 mg/kg orally, AMPA 2 nmole/5 μl/minute/mouse into lateral ventricle 30 minutes or 1 hour after dosing. As to the method: A test compound was suspended in a 0.5% methyl cellulose solution or in sesame oil and was orally administered (25 mg/kg) to male mice of ddy strain. After 30 minutes or 1 hour from the oral administration, AMPA was continuously injected (2 nmole/5 μl/minute/mouse) into lateral ventricle to induce the convulsions. The effect was judged by a time-extending action until the convulsion takes place by a continuous injection of AMPA.

Another experiment has as its system Female Lewis rats. Kind of experiment: Experimental autoimmune encephalomyelitis model (Test Example 10). It is filed as in vivo, rat. To be noted: p.o. 5, 10 and 20 mg/kg, 10-16 dpi. As to the method: Female Lewis rats (205±10 g) obtained from Charles River, Kent UK, were housed in pairs under environmentally controlled conditions (6:00a.m.-6:00p.m. light/dark cycle; 22-24° C.; 45-55% humidity) and allowed free access to food and water. Experimental groups consisted of 9-12 animals. Rats were immunised in each hind foot with 20-50 μl of inoculum containing 50 μg guinea pig myelin basic protein (MBP; final concentration 2 mg/ml), emulsified in Freund's complete adjuvant (CFA; Sigma, UK) containing Mycobacterium tuberculosis H37Ra (final concentration 5.5 mg/ml; Difco Laboratories, UK). Animals were weighed and monitored daily and clinical disease scored as (0) no clinical signs; (1) flaccid tail and weight loss; (2) hind limb hypotonia with further weight loss; (3) complete hind limb paralysis; (4) paraplegia and (5) death. […] During the period of compound administration (10-16 days post immunisation; dpi) animals were scored 15 h after injection of vehicle or compound to avoid any acute effect of treatment on disease score. Compounds were dissolved/suspended in 0.5% methyl cellulose using a hand held Polytron homogeniser (PT1200; 2 min). Rats were dosed p.o. with either methyl cellulose vehicle (2.5 ml/kg) or compound at 5, 10 and 20 mg/kg.

Setting [1] is: primary culture of rat embryo cerebral cortex nerve cells, Fura2-AM, 2 μM AMPA, 1 μM MK-801.
The mark [2] stands for this setting: suppression of AMPA-induced calcium influx into nerve cells, Table 2.
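For IC50 in this document: neurons cultured at least 8 to 10 days atop an astrocyte layer in 96-well plates, calcium entry read as the change in Fura2 fluorescence ratio at 340/380 nm excitation.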

Procedure for AMPA receptor: Cerebral cortex was cut out from the brain of rat of gestational 18 days and treated with trypsin and DNase to disperse the cells. The cells were flown by MEM containing 10% of serum, sown in a culture bottle and astrocytes were proliferated. The astrocytes were re-dispersed by trypsin and sown in a 96-well plate. After incubation for one week, it was confirmed that the astrocytes covered all over the bottom and then the nerve cells of cerebral cortex which was dispersed by the above method were sown thereupon. After incubation for 24 hours, the medium was changed, the incubation was carried out for one week and, after that, the medium was changed to that containing 1 μM of MK-801. Nerve cells which were incubated for not shorter than 8 to 10 days were used.
Calcium influx into the cells was measured using Fura2-AM which was a calcium-sensitive fluorescent dye. It was treated in a medium containing Fura2-AM for 1 hour, incorporated into the cells, exchanged to a Tyrode solution containing 1 μM MK-801 and stimulation was carried out using 2 μM AMPA. Change in the amount of calcium flown into the cells were measured as the change in the fluorescent intensity at the exciting wave length of 340/380 nm.

In the case of `N#Cc1ccccc1-c1cc(-c2ccccn2)cn(-c2cccc(N)c2)c1=O` [Example 9, 3-(2-Cyanophenyl)-5-(2-pyridyl)-1-(3-aminophenyl)-1,2-dihydropyridin-2-one], the “Anticonvulsant action (time-extending action until convulsion by continuous AMPA injection)” value (from here on “Anticonvulsant action”) with male mice of ddy strain is “significant anticonvulsant action”. This molecule displayed an IC50 with AMPA receptor (setting [1]) of 30 nM.
For `CN(C)c1cccc(-n2cc(-c3ccccn3)cc(-c3ccccc3C#N)c2=O)c1` [Example 12, 3-(2-Cyanophenyl)-5-(2-pyridyl)-1-(3-dimethylaminophenyl)-1,2-dihydropyridin-2-one] the same measures were “significant anticonvulsant action” and 100 nM.
For `N#Cc1ncccc1-c1cc(-c2ccccn2)cn(-c2ccccc2)c1=O` [Example 16, 3-(2-Cyano-3-pyridyl)-5-(2-pyridyl)-1-phenyl-1,2-dihydropyridin-2-one] the same measures were “significant anticonvulsant action” and 100 nM.
As to `N#Cc1ccccc1-c1cc(-c2ccccn2)cn(-c2cccnc2)c1=O` [Example 32, 3-(2-Cyanophenyl)-5-(2-pyridyl)-1-(3-pyridyl)-1,2-dihydropyridin-2-one], in the experiment with male mice of ddy strain, the “Anticonvulsant action” value is “significant anticonvulsant action”. Besides, the “Effect on EAE vs vehicle-administered group” value with Female Lewis rats is “superior effect to the vehicle-administered group”. In addition, in the experiment with AMPA receptor (setting [1]), the IC50 came to 100 nM.
With `N#Cc1ccccc1-c1cc(-c2ccccc2)cn(-c2ccccc2)c1=O` [Example 41, 3-(2-Cyanophenyl)-1,5-diphenyl-1,2-dihydropyridin-2-one], in the experiment on male mice of ddy strain, the “Anticonvulsant action” value is “significant anticonvulsant action”. The molecule also returned an IC50 in the experiment on AMPA receptor (setting [1]) of 80 nM.
Regarding `O=c1c(-c2cccnc2F)cc(-c2ccccn2)cn1-c1ccccc1` [Example 76, 3-(2-Fluoro-3-pyridyl)-5-(2-pyridyl)-1-phenyl-1,2-dihydropyridin-2-one], in the experiment on male mice of ddy strain, the “Anticonvulsant action” value is recorded as “significant anticonvulsant action”. The “Effect on EAE vs vehicle-administered group” value in the experiment on Female Lewis rats is “superior effect to the vehicle-administered group”.
With `N#Cc1cccnc1-c1cc(-c2ccccn2)cn(-c2ccccc2)c1=O` [Example 78, 3-(3-Cyano-2-pyridyl)-5-(2-pyridyl)-1-phenyl-1,2-dihydropyridin-2-one], the “Anticonvulsant action” value with male mice of ddy strain is given as “significant anticonvulsant action”. Besides, in the experiment on AMPA receptor (setting [1]), the half-inhibitory concentration (IC50) was 1400 nM.
Consider `N#Cc1ccccc1-c1cc(-c2ccccn2)cn(-c2ccc(F)cc2)c1=O` [Example 91, 3-(2-Cyanophenyl)-5-(2-pyridyl)-1-(4-fluorophenyl)-1,2-dihydropyridin-2-one], for which, in the experiment with male mice of ddy strain, the “Anticonvulsant action” value is on record as “significant anticonvulsant action”. Moreover, the half-maximal inhibitory concentration (IC50) in the experiment on AMPA receptor (setting [1]) worked out at 50 nM.
`COc1ccccc1-n1cc(-c2ccccn2)cc(-c2ccccc2C#N)c1=O` [Example 126, 3-(2-Cyanophenyl)-5-(2-pyridyl)-1-(2-methoxyphenyl)-1,2-dihydropyridin-2-one]: in the experiment with male mice of ddy strain, the “Anticonvulsant action” value was “significant anticonvulsant action”.
Same read-out and setting: next, `O=c1c(-c2ccccc2Cl)cc(-c2ccccn2)cn1-c1cccnc1` [Example 128, 3-(2-Chlorophenyl)-5-(2-pyridyl)-1-(3-pyridyl)-1,2-dihydropyridin-2-one]: “significant anticonvulsant action”; `N#Cc1sccc1-c1cc(-c2ccccn2)cn(-c2cccnc2)c1=O` [Example 137, 3-(2-Cyanothiophen-3-yl)-5-(2-pyridyl)-1-(3-pyridyl)-1,2-dihydropyridin-2-one]: “significant anticonvulsant action”.
On to `O=c1c(-c2cccnc2F)cc(-c2ccccn2)cn1-c1cccnc1` [Example 139, 3-(2-Fluoro-3-pyridyl)-5-(2-pyridyl)-1-(3-pyridyl)-1,2-dihydropyridin-2-one], for which the “Anticonvulsant action” value in the experiment with male mice of ddy strain is “significant anticonvulsant action”. The “Effect on EAE vs vehicle-administered group” value in the experiment on Female Lewis rats is “superior effect to the vehicle-administered group”.
`N#Cc1ccccc1-c1cc(-c2ncccn2)cn(-c2ccccc2)c1=O` [Example 164, 3-(2-Cyanophenyl)-1-phenyl-5-(2-pyrimidinyl)-1,2-dihydropyridin-2-one]: the “Anticonvulsant action” value in the experiment on male mice of ddy strain is “significant anticonvulsant action”. Further, in the experiment on Female Lewis rats, the “Effect on EAE vs vehicle-administered group” value was “superior effect to the vehicle-administered group”. Also, in the experiment with AMPA receptor (setting [2]), the IC50 worked out at 80 nM.
In the case of `N#Cc1ccccc1-c1cc(-c2cnccn2)cn(-c2ccccc2)c1=O` [Example 199, 3-(2-Cyanophenyl)-1-phenyl-5-(2-pyrazinyl)-1,2-dihydropyridin-2-one], the “Anticonvulsant action” value with male mice of ddy strain was “significant anticonvulsant action”.
For `N#Cc1ccccc1-c1cc(-c2ncccn2)cn(-c2cccnc2)c1=O` [Example 261, 3-(2-Cyanophenyl)-1-(3-pyridyl)-5-(2-pyrimidinyl)-1,2-dihydropyridin-2-one], the “Anticonvulsant action” value with male mice of ddy strain is listed as “significant anticonvulsant action”. Besides, the “Effect on EAE vs vehicle-administered group” value in the experiment on Female Lewis rats is given as “superior effect to the vehicle-administered group”.
Regarding `O=c1c(-c2cccnc2F)cc(-c2ncccn2)cn1-c1ccccc1` [Example 262, 3-(2-Fluoropyridin-3-yl)-1-phenyl-5-(2-pyrimidinyl)-1,2-dihydropyridin-2-one], in the experiment on male mice of ddy strain, the “Anticonvulsant action” value is listed as “significant anticonvulsant action”. Further, the “Effect on EAE vs vehicle-administered group” value in the experiment with Female Lewis rats is “superior effect to the vehicle-administered group”. For the same molecule, in the experiment with AMPA receptor (setting [2]), the IC50 was found to be 300 nM.
Regarding `N#Cc1ncccc1-c1cc(-c2ncccn2)cn(-c2ccccc2)c1=O` [Example 264, 3-(2-Cyanopyridin-3-yl)-1-phenyl-5-(2-pyrimidyl)-1,2-dihydropyridin-2-one], the “Anticonvulsant action” value in the experiment on male mice of ddy strain is listed as “significant anticonvulsant action”. Further, the “Effect on EAE vs vehicle-administered group” value in the experiment with Female Lewis rats is listed as “superior effect to the vehicle-administered group”.
Regarding `O=c1c(-c2ccccc2[N+](=O)[O-])cc(-c2ccccn2)cn1-c1ccccc1` [Example 270, 3-(2-Nitrophenyl)-1-phenyl-5-(2-pyridyl)-1,2-dihydropyridin-2-one], the “Anticonvulsant action” value in the experiment with male mice of ddy strain is “significant anticonvulsant action”.
Still for that read-out and setting: in the case of `N#Cc1ccccc1-c1cc(-c2cccc(N)n2)cn(-c2ccccc2)c1=O` [Example 298, 5-(2-Aminopyridin-6-yl)-3-(2-cyanophenyl)-1-phenyl-1,2-dihydropyridin-2-one] it was “significant anticonvulsant action”.

These data come from patent US7759367B2, “Pharmaceutical compositions and their uses” (Eisai R&D Management Co., Ltd., priority 2001, dated 2010).
